From PubChem BioAssay AID1996
Converted amounts (≈) assume the structure as drawn.

settings: buffer; pH 7.4; 200.0 µM

Question: With Cc1ccc(NC(=O)Nc2cnccn2)cc1C as the compound, how does the solubility kinetic read?
Answer: 9.5 µg/mL (≈ 39.2 µM)

Question: With COc1cc(CN2CCN(c3ncccn3)CC2)cc(OC)c1 as the compound, how does the solubility kinetic read?
Answer: > 47.2 µg/mL

Question: With Clc1ccc(-c2noc(CN3CCOCC3)n2)cc1 as the compound, how does the solubility kinetic read?
Answer: > 42 µg/mL

Question: With Cc1ccc(CNC(=O)Nc2ccc(Cl)cc2)cc1 as the compound, how does the solubility kinetic read?
Answer: < 0.3 µg/mL

Question: For CCN1C(=O)c2ccc(C(=O)Nc3c(C)cc(C)cc3C)cc2C1=O, which solubility kinetic is on record?
Answer: < 0.4 µg/mL

Question: With N#CC(=C=[N-])c1nc2ccccc2nc1-[n+]1cccc(NC(=O)c2cccs2)c1 as the compound, how does the solubility kinetic read?
Answer: 1.5 µg/mL (≈ 3.78 µM)

Question: Which solubility kinetic does the source give for CN(C)C(=S)Nc1ccc(S(=O)(=O)N2CCCCC2)cc1 here?
Answer: 47.1 µg/mL (≈ 144 µM)

Question: Which solubility kinetic does the source give for CC(=O)Nc1ccc(NC(=O)Nc2ccccc2C)cc1 here?
Answer: 1.8 µg/mL (≈ 6.35 µM)

Question: Which solubility kinetic does the source give for O=C1CCC(=O)N1Cc1c(Cl)cccc1Cl here?
Answer: 35.5 µg/mL (≈ 138 µM)

Question: Which solubility kinetic does the source give for COc1ccc(NC2CCCN(C(=O)c3ccncc3)C2)cc1 (stereo not given) here?
Answer: > 46.7 µg/mL

Question: For COc1ccc(CNC(=O)C(Cc2ccccc2)n2cccc2)cc1 (stereo not given), which solubility kinetic is on record?
Answer: 7.8 µg/mL (≈ 23.3 µM)

Question: For COc1cc(OC)cc(C(=O)NCC(=O)OCC(=O)NC2CCCc3ccccc32)c1 (stereo not given), which solubility kinetic is on record?
Answer: 58.5 µg/mL (≈ 137 µM)

Question: Which solubility kinetic does the source give for Cc1cc(Br)c(NC(=O)COC(=O)c2ccc[n+]([O-])c2)c(Br)c1 here?
Answer: > 66.6 µg/mL

Question: Which solubility kinetic does the source give for Cc1cccc(C)c1NC(=O)CNC(=O)c1ccccc1 here?
Answer: 24.9 µg/mL (≈ 88.2 µM)

Question: Which solubility kinetic does the source give for Cc1ccccc1C(=O)NCCN1CCOCC1.Cl here?
Answer: > 42.7 µg/mL

Question: For Cc1nn(C)c(C)c1NC(=O)/C(C#N)=C\N(C)C, which solubility kinetic is on record?
Answer: > 37.1 µg/mL

Question: Which solubility kinetic does the source give for O=c1ccc2cc(S(=O)(=O)NCCCc3ccccc3)ccc2[nH]1 here?
Answer: 1 µg/mL (≈ 2.92 µM)

Question: For N#CCSc1nc2sccc2c(=O)n1-c1ccccc1, which solubility kinetic is on record?
Answer: 37 µg/mL (≈ 124 µM)

Question: For CC(NC(=O)Nc1ccc(F)cc1F)c1ccc2c(c1)OCO2 (stereo not given), which solubility kinetic is on record?
Answer: 2.4 µg/mL (≈ 7.49 µM)

Question: For Fc1ccc(NC(=S)N2CCN(c3ccccn3)CC2)cc1Cl, which solubility kinetic is on record?
Answer: < 0.2 µg/mL

Question: For COc1cc(OC)c(C(=O)N2CCCC2)cc1OC, which solubility kinetic is on record?
Answer: > 39.8 µg/mL

Question: With COc1ccc(/C=C/C(=O)N2CCN(S(=O)(=O)c3ccccc3Br)CC2)cc1OC as the compound, how does the solubility kinetic read?
Answer: 13.6 µg/mL (≈ 27.5 µM)

Question: With O=C(NC(=S)NC1CCSC1=O)c1cccc([N+](=O)[O-])c1 (stereo not given) as the compound, how does the solubility kinetic read?
Answer: 43.2 µg/mL (≈ 133 µM)

Question: Which solubility kinetic does the source give for COc1cccc(OCC(=O)O/N=C(\N)c2ccncc2)c1 here?
Answer: 39.9 µg/mL (≈ 132 µM)

Question: For CN(C(=O)COC(=O)c1cnc(Cl)c(Cl)c1)C1CCCCC1, which solubility kinetic is on record?
Answer: 41.7 µg/mL (≈ 121 µM)

Question: For c1ccc(CN2CCOCCOCCOCC2)cc1, which solubility kinetic is on record?
Answer: > 39.8 µg/mL

Question: With COc1ccccc1OC(=O)Nc1ccc(Cl)cc1 as the compound, how does the solubility kinetic read?
Answer: 17.8 µg/mL (≈ 64.1 µM)

Question: With CN1C(=O)C(c2ccccc2)C(=O)N(C)C1=O as the compound, how does the solubility kinetic read?
Answer: 30.5 µg/mL (≈ 131 µM)

Question: With O=C(NCc1csc2ccc(Cl)cc12)Nc1ccccc1 as the compound, how does the solubility kinetic read?
Answer: < 0.3 µg/mL

Question: Which solubility kinetic does the source give for COc1ccccc1/C=C/C(=O)OCC(=O)NC(=O)NC1CCCC1 here?
Answer: 13.8 µg/mL (≈ 39.8 µM)

Question: With Cc1cccn2cc(CCNC(=O)c3cccs3)nc12 as the compound, how does the solubility kinetic read?
Answer: > 42.8 µg/mL

Question: With O=C(CCN1CCN(c2ccccc2)CC1)Nc1ccccc1 as the compound, how does the solubility kinetic read?
Answer: 40.9 µg/mL (≈ 132 µM)

Question: Which solubility kinetic does the source give for CCOc1ccccc1C(=O)NCCCCNC(=O)c1ccccc1OCC here?
Answer: 10.2 µg/mL (≈ 26.5 µM)

Question: For Nc1cncc(C(=O)O)c1, which solubility kinetic is on record?
Answer: > 20.7 µg/mL

Question: For Cc1sc2ncnc(SCC(=O)N3CCOCC3)c2c1C, which solubility kinetic is on record?
Answer: 39.3 µg/mL (≈ 122 µM)

Question: For COc1ccc(-c2csc(COC(=O)C(C)(C)C)n2)cc1, which solubility kinetic is on record?
Answer: < 0.7 µg/mL

Question: Which solubility kinetic does the source give for CC(=O)c1ccc(OCC(=O)NC2CCCCCC2)cc1 here?
Answer: > 43.4 µg/mL

Question: For Cc1csc(SCC(=O)Nc2cc(C(N)=O)cc(C(N)=O)c2)n1, which solubility kinetic is on record?
Answer: 51.6 µg/mL (≈ 147 µM)

Question: With Cc1ccc2cc(S(=O)(=O)NCCCN3CCOCC3)ccc2c1 as the compound, how does the solubility kinetic read?
Answer: > 52.3 µg/mL

Question: With CS(=O)(=O)c1ccc2nc(NC(=O)c3ccccc3)sc2c1 as the compound, how does the solubility kinetic read?
Answer: 1.5 µg/mL (≈ 4.51 µM)

Question: Which solubility kinetic does the source give for O=C(CN1C(=O)NC2(CCCC2)C1=O)NCc1cccc(Cl)c1 here?
Answer: 42.4 µg/mL (≈ 126 µM)

Question: With Cc1ccc(C)c(C(=O)COc2ncnc3ccccc23)c1 as the compound, how does the solubility kinetic read?
Answer: 9.2 µg/mL (≈ 31.5 µM)

Question: For CC(C)CN1C(=O)C(=Nc2cccnc2)c2ccccc21, which solubility kinetic is on record?
Answer: > 41.9 µg/mL

Question: Which solubility kinetic does the source give for Cc1cc(=O)n2cccc(O)c2n1.Cl here?
Answer: 21.7 µg/mL

Question: Which solubility kinetic does the source give for C=CCN(c1ccccc1OC)S(=O)(=O)c1cccc(C(=O)NCc2ccco2)c1 here?
Answer: 1 µg/mL (≈ 2.34 µM)

Question: For Nc1nc(SCC(=O)NC2CCCC2)[nH]c(=O)c1NC(=O)c1cccs1, which solubility kinetic is on record?
Answer: 4.4 µg/mL (≈ 11.2 µM)

Question: With CCOc1ccc(C(C)=O)cc1Cn1ccsc1=N.Cl as the compound, how does the solubility kinetic read?
Answer: > 46.9 µg/mL

Question: With CN(C)NC(=S)NC1(C)CCS(=O)(=O)C1 (stereo not given) as the compound, how does the solubility kinetic read?
Answer: > 37.7 µg/mL

Question: With O=C(COc1ccccc1Cl)NCCCNC(=O)c1ccccn1 as the compound, how does the solubility kinetic read?
Answer: > 52.2 µg/mL

Question: For OCCN=C1CCCc2c1[nH]c1ccc(Cl)cc21, which solubility kinetic is on record?
Answer: 12.3 µg/mL (≈ 46.8 µM)

Question: Which solubility kinetic does the source give for Cc1ccc(CNC(=O)CSc2nc(C)cs2)cc1 here?
Answer: > 43.9 µg/mL

Question: With O=C(NCC1OCCc2ccccc21)C1COc2ccccc2O1 (stereo not given) as the compound, how does the solubility kinetic read?
Answer: > 48.8 µg/mL

Question: Which solubility kinetic does the source give for Cc1ccc(S(=O)(=O)N2CCC[C@H]2C(=O)Nc2ccccc2C)cc1 here?
Answer: > 53.8 µg/mL

Question: Which solubility kinetic does the source give for CC(C)(C)C(=O)OC/C(N)=N/OC(=O)c1ccc(Cl)cc1 here?
Answer: 1.6 µg/mL (≈ 5.12 µM)

Question: With O=C(NC(=S)Nc1ccccc1O)c1cccnc1 as the compound, how does the solubility kinetic read?
Answer: > 41 µg/mL

Question: For CC(C(=O)Nc1ccccc1)C(=O)Nc1ccccc1, which solubility kinetic is on record?
Answer: 21.8 µg/mL (≈ 81.2 µM)

Question: For CCOC(=O)C(=O)Nc1sc(C(=O)N(CC)CC)c(C)c1C#N, which solubility kinetic is on record?
Answer: > 50.6 µg/mL

Question: For O=C(NCC1CC1)Nc1cccc(C(F)(F)F)c1, which solubility kinetic is on record?
Answer: 29.3 µg/mL (≈ 113 µM)

Question: Which solubility kinetic does the source give for COc1ccc(C=O)cc1Cn1ccnc1.Cl here?
Answer: > 37.9 µg/mL

Question: Which solubility kinetic does the source give for O=C1CCCN1c1ccc(N2CCCC2=O)cc1 here?
Answer: > 36.6 µg/mL
